Laboratory results: the supplement of paper PMC10307832

Experiments:
Test in all cases: relative viability (nuclei count vs DMSO), 5 days (fraction); higher = more cells survive
Obatoclax + Olaparib = compound: COC1=CC(c2cc3ccccc3[nH]2)=N/C1=C\c1[nH]c(C)cc1C [Obatoclax] + O=C(c1cc(Cc2n[nH]c(=O)c3ccccc23)ccc1F)N1CCN(C(=O)C2CC2)CC1 [Olaparib] (partner 8 µM)
In short: (§1)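 Each reported value is a median over duplicate plates. It expresses relative viability: treated-well nuclei count divided by vehicle-well nuclei count. Lung cancer cell lines in 1536-well plates were dosed by pin tool a day after seeding, alone with one drug or with a fixed anchor-drug dose plus five library-drug doses (not always all listed) in √10 steps, and nuclei were counted after 5 days.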

[1] = compound: CC1=CC(=NN1)NC2=CC(=NC(=N2)/C=C/C3=CC=CC=C3)N4CCN(CC4)C + COc1cccc2cc(-c3nc([C@H]4CC[C@H](C(=O)O)CC4)n4ncnc(N)c34)[nH]c12 [OSI-027] (partner 0.5 µM)
In short: as §1

Obatoclax + Palbociclib = compound: COC1=CC(c2cc3ccccc3[nH]2)=N/C1=C\c1[nH]c(C)cc1C [Obatoclax] + CC(=O)c1c(C)c2cnc(Nc3ccc(N4CCNCC4)cn3)nc2n(C2CCCC2)c1=O [Palbociclib] (partner 0.5 µM)
In short: as §1

Obatoclax + Crizotinib = compound: COC1=CC(c2cc3ccccc3[nH]2)=N/C1=C\c1[nH]c(C)cc1C [Obatoclax] + C[C@@H](Oc1cc(-c2cnn(C3CCNCC3)c2)cnc1N)c1c(Cl)ccc(F)c1Cl [Crizotinib] (partner 1 µM)
In short: as §1

Cell Line	relative viability (Obatoclax + Olaparib; first compound 0.01 µM)	relative viability (Obatoclax + Olaparib; first compound 0.03162 µM)	relative viability (Obatoclax + Olaparib; first compound 0.1 µM)	relative viability (Obatoclax + Olaparib; first compound 0.3162 µM)	relative viability (Obatoclax + Olaparib; first compound 1 µM)	relative viability ([1]; first compound 0.08 µM)	relative viability ([1]; first compound 0.253 µM)	relative viability ([1]; first compound 0.8 µM)	relative viability ([1]; first compound 2.53 µM)	relative viability ([1]; first compound 8 µM)	relative viability (Obatoclax + Palbociclib; first compound 0.01 µM)	relative viability (Obatoclax + Palbociclib; first compound 0.03162 µM)	relative viability (Obatoclax + Palbociclib; first compound 0.1 µM)	relative viability (Obatoclax + Palbociclib; first compound 0.3162 µM)	relative viability (Obatoclax + Palbociclib; first compound 1 µM)	relative viability (Obatoclax + Crizotinib; first compound 0.01 µM)	relative viability (Obatoclax + Crizotinib; first compound 0.03162 µM)	relative viability (Obatoclax + Crizotinib; first compound 0.1 µM)	relative viability (Obatoclax + Crizotinib; first compound 0.3162 µM)	relative viability (Obatoclax + Crizotinib; first compound 1 µM)
RERF-LC-KJ	0.897	0.903	0.897	0.863	0.33	0.532	0.656	0.53	0.238	0.179	0.909	1.06	1.09	0.957	0.892	0.739	0.821	0.804	0.794	0.749
NCI-H1755	0.873	0.901	0.868	0.787	0.839	0.724	0.715	0.648	0.363	0.209	0.427	0.447	0.458	0.497	0.426	0.846	0.833	0.813	0.925	0.867
PC-14	0.285	0.306	0.14	0.0684	0.081	0.856	0.825	0.802	0.0598	0.0365	0.453	0.489	0.411	0.0534	0.055	0.838	0.863	0.811	0.9	0.54
NCI-H322M	0.823	0.739	0.961	0.758	0.724	0.504	0.546	0.538	0.364	0.278	0.491	0.485	0.58	0.501	0.452	0.822	0.932	0.845	1.01	0.96
NCI-H1666	0.769	0.726	0.766	0.691	0.585	0.822	0.921	0.86	0.79	0.432	0.593	0.692	0.659	0.638	0.592	1.08	1.04	0.867	0.284	0.265
A-427	0.82	0.706	0.559	0.775	0.416	0.531	0.295	0.466	0.192	0.0905	0.54	0.511	0.419	0.517	0.462	0.958	0.792	0.802	0.999	0.968
NCI-H358	0.543	0.61	0.582	0.384	0.141	0.769	0.933	0.483	0.0714	0.0592	0.13	0.127	0.142	0.114	0.117	0.46	0.57	0.592	0.374	0.352
NCI-H1651	0.182	0.164	0.189	0.224	0.179	0.613	0.749	0.63	0.293	0.133	0.522	0.501	0.524	0.553	0.554	0.906	0.831	0.863	0.89	0.891
NCI-H520	0.301	0.323	0.372	0.289	0.208	0.289	0.286	0.214	0.165	0.128	0.287	0.23	0.331	0.187	0.151	0.781	0.777	0.774	0.628	0.461
201T	0.873	0.782	0.838	0.823	0.831	0.718	0.756	0.803	0.531	0.112	0.382	0.363	0.348	0.348	0.357	1.01	1.03	1.04	0.996	1.06
NCI-H460	0.422	0.408		0.339	0.14	0.696	0.606	0.578	0.0297	0.0153	0.153	0.14	0.201	0.055	0.0295	0.727	0.716	0.605	0.244	0.0446
HARA	0.639	0.962	1.03	0.99	0.89	0.361	0.474	0.649	0.252	0.0476	0.314	0.224	0.285	0.242	0.216	1.01	1.03	1.1	1.05	0.382
NCI-H2126	0.872	0.851	0.903	0.865	0.918	0.74	0.747	0.675	0.596	0.37	0.34	0.34	0.376	0.356	0.337	1.06	0.987	0.952	1.02	0.965
HCC-827	0.594	0.542	0.628	0.581	0.221	0.778	0.865	0.716	0.742	0.588	0.475	0.436	0.531	0.407	0.482	0.86	0.847	0.957	0.876	0.772
ABC-1	1.08	0.95	0.776	0.799	0.566	0.453	0.54	0.644	0.179	0.143	0.838	0.717	0.595	0.609	0.454	1.2	1.18	1.6	1.06	0.723
BEN	1.03	1.04	0.864	0.914	0.942	0.294	0.264	0.271	0.244	0.162	0.467	0.477	0.429	0.462	0.44	0.897	0.841	0.853	0.75	0.817
